{"source": "patent US5733559A", "about": "“Controlled release inclusion system of glycolic acid in β-cyclo-dextrin and process for the above system preparation” (priority 1995, dated 1998)", "key": {"[1]": {"system": "cutaneous area (volar surfaces of the forearm)", "test": "Patch test (epicutaneous test): cutaneous irritation by occlusive application, average index of cutaneous irritation (IIM)", "source_text": "The first series of tests consisted in the test of cutaneous irritation or epicutaneous test (Patch Test) by means of occlusive application.\n(§1) Free glycolic acid 70% (AG)--Du Pont\nTen healthy subjects were selected, of both sex, with negative anamnesis for allergic dermatitis by contact (DAC) and without any other pathology in process during the execution of the Test.\nThe ready to use plasters for dermoreactions used for the Patch Test were made of white \"non woven fabric\" with a dermatophilic mass of acrylic adhesive, in the shape of 1 cm diameter disc, covered by small squares of polyethylene.\nThe test was performed as follows: after cleansing with 70% alcoholic solution (denatured ethyl alcohol the cutaneous area to be treated (volar surfaces of the forearm), occlusive applications of the substance under examination were carried out for one hour. After that period, the plasters were removed and 15 minutes later the cutaneous reaction was evaluated and classified on the basis of an arbitrary scale.\nThe cutaneous reactions considered were:\nAccording to the arbitrary scale used for the classification of the cutaneous reactions, 0 corresponds to the absence of reaction, 1 point to a light degree, 2 points to a moderate degree of reaction and 3 points to a reaction of serious gravity.\nFor each volunteer scores were recorded for each parameter and the mean value was calculated. […]"}, "[2]": {"system": "skin of the face (periocular and zygomatic zone)", "test": "Non occlusive application: cutaneous tolerability test on the face", "protocol": "For the second series of tests cutaneous irritation was determined following non-occlusive applications.\nNon occlusive application\nas §1\nEight healthy volumary women were chosen, aged between 30 and 50 (average age 37,5).\nThe samples were applied on one half of the face (periocular and zygomatic zone) using a badger brush. The duration of the application was decided according to the type of skin and to the cutaneous reaction of the individual volunteer. 5 applications were carried out, one every three or more days according to the subjects.\nThe irritating effect was assessed before the application and one hour after the application.\nThe parameters considered to clinically evaluate the irritating degree of the substance under examination were the following:\nirritative symptoms: erythema, pruritus, burning, desquamation, blistering, eczematous reaction.\nThe irritating effect was assessed on the basis of an arbitrary scale, based on clinical experience, recorded as follows:\n1=Modest reaction (slight reddening, pruritus)\n2=Irritative reaction (erythema, pruritus, desquamation)\n3=Strong irritative reaction (erythema, burning, strong pruritus, desquamation, and more)\nAfter every application the cutaneous reactions of each volunteer were evaluated and a relative score was given."}, "[3]": {"conditions": "application time 3 min, 50% concentration, pH 2,5, right side of face, one value per subject"}}, "note": "Where “and” joins values, the source holds several entries; their conditions need not be identical. Identical values can stand only once."}
{"smiles": "O=C(O)CO", "note": "[AG, glycolic acid]", "values": [{"measurement": "average index of cutaneous irritation of AG compared to that of CCAG", "setting": "[1]; 10% concentration", "value": "significantly and appreciably higher"}, {"measurement": "average index of cutaneous irritation of free glycolic acid compared to that of glycolic acid complexed with cyclodextrins", "setting": "[1]; at comparable concentrations (5%)", "value": "slightly higher"}, {"measurement": "case of average to serious irritation after the second application, requiring suspension of the treatment", "setting": "[2]; 8 subjects, right side periocular and zygomatic area", "value": "one"}, {"measurement": "irritation score (arbitrary scale 0-3), 1st application", "setting": "[2]; application time 1 min, 50% concentration, pH 2,5, AG right side, CCAG left side of face, one value per subject", "value": 0}, {"measurement": "irritation score (arbitrary scale 0-3), 2nd application", "setting": "[2]; application time 2 min, 50% concentration, pH 2,5, AG right side, CCAG left side of face, one value per subject", "value": "2/3 and 0"}, {"measurement": "irritation score (arbitrary scale 0-3), 3rd application", "setting": "[2]; application time 3 min, 50% concentration, pH 2,5, AG right side, CCAG left side of face, one value per subject", "value": "2 and 0"}, {"measurement": "irritation score (arbitrary scale 0-3), 4th application, AG", "setting": "[2]; [3]", "value": 0}, {"measurement": "irritation score (arbitrary scale 0-3), 5th application, AG", "setting": "[2]; [3]", "value": 0}, {"measurement": "cases of irritation of average gravity after the third application", "setting": "[2]; in vivo", "value": 2, "unit": "cases"}, {"measurement": "cases of irritation of grade 2 and 2/3", "setting": "[2]; in vivo", "value": 3, "unit": "cases"}, {"measurement": "irritation because of which subject 1 had to suspend treatment", "setting": "[2]; subject 1, second application", "value": "average to serious irritation"}]}
